Laboratory results taken from ChEMBL document CHEMBL4425149, “Lead optimization of a pyrazolo[1,5-a]pyrimidin-7(4H)-one scaffold to identify potent, selective and orally bioavailable KDM5 inhibitors suitable for in vivo biological studies” (Bioorg Med Chem Lett, 2016).
Activity calls are given as the source filed them. No cut-off for these calls is given here.

What was measured:
[1] = Octanol-aqueous buffer distribution coefficient, log D of the compound at pH 7.4; type: physicochemical
[2] = target: Lysine-specific demethylase 5A (Homo sapiens, UniProt P29375); experiment: Inhibition of KDM5A (unknown origin)
[3] = Inhibition of KDM5 in human PC9 cells assessed as demethylation of H3K4Me3; type: cell-based; conditions: PC-9
[4] = Protein binding in human plasma; type: ADME, cell-free; conditions: read-out: PPB (converted)
[5] = Dissociation constant, pKa of the compound at pH 7.4; type: physicochemical
[6] = Clearance in CD-1 mouse plasma at 1 mg/kg, iv or 5 mg/kg, po; type: ADME, organism-based
[7] = Half life in CD-1 mouse at 1 mg/kg, iv or 5 mg/kg, po; type: ADME, organism-based; conditions: in vivo
[8] = Volume of distribution in CD-1 mouse at 1 mg/kg, iv or 5 mg/kg, po; type: ADME, organism-based; conditions: in vivo
[9] = Oral bioavailability in CD-1 mouse at 5 mg/kg; type: ADME, organism-based; conditions: in vivo
[10] = target: Lysine-specific demethylase 5B (Homo sapiens, UniProt Q9UGL1); experiment: Inhibition of KDM5B (unknown origin)
[11] = target: Lysine-specific demethylase 5C (Homo sapiens, UniProt P41229); experiment: Inhibition of KDM5C (unknown origin)
[12] = target: Lysine-specific histone demethylase 1A (Homo sapiens) (UniProt O60341); experiment: Inhibition of KDM1A (unknown origin)
[13] = target: T1, Lysine-specific demethylase 2B (Homo sapiens) (UniProt Q8NHM5); experiment: Inhibition of KDM2B (unknown origin)
T1 sequence (whole entry): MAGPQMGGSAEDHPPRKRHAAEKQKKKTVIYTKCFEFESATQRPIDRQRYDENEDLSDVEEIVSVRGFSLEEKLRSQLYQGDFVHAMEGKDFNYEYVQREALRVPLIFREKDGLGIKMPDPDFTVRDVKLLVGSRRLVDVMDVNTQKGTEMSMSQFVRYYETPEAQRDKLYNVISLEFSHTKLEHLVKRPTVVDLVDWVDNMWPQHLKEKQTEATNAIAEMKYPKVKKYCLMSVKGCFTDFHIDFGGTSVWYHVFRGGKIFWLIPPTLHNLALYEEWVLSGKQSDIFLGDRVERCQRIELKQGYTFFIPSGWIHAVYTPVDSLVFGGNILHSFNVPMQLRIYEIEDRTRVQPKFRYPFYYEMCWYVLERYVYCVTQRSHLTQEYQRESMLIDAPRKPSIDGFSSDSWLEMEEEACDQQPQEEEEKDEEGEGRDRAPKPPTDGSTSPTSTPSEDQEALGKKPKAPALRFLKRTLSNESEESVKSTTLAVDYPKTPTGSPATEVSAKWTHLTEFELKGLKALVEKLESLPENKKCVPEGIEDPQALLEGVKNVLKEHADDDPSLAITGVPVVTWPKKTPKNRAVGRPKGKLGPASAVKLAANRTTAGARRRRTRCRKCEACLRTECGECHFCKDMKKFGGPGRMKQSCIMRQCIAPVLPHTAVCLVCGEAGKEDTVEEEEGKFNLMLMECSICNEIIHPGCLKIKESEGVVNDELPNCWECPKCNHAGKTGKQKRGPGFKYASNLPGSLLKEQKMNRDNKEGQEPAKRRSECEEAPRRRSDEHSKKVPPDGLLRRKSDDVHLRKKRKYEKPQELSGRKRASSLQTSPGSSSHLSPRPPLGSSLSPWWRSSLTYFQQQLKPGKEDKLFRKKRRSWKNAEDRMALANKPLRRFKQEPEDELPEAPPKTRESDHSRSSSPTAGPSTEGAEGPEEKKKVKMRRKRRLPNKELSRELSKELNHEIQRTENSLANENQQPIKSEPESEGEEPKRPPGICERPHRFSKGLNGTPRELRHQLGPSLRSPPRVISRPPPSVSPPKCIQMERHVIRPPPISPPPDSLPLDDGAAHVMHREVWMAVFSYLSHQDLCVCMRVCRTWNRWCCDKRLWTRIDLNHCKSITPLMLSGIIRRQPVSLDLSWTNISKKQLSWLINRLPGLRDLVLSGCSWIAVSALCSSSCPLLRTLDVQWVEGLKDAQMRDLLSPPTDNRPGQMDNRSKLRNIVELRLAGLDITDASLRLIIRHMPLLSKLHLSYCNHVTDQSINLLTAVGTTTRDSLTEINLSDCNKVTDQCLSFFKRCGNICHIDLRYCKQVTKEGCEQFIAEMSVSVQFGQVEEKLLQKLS

[14] = target: Lysine-specific demethylase 3B (Homo sapiens) (UniProt Q7LBC6); experiment: Inhibition of KDM3B (unknown origin)
[15] = target: Lysine-specific demethylase 6A (Homo sapiens) (UniProt O15550); experiment: Inhibition of KDM6A (unknown origin)
[16] = target: Histone lysine demethylase PHF8 (Homo sapiens) (UniProt Q9UPP1); experiment: Inhibition of KDM7B (unknown origin)
[17] = Cmax in mouse at 50 mg/kg, po bid; type: ADME, organism-based; design: dose 50 mg/kg, route oral; conditions: in vivo
[18] = Protein binding in mouse plasma; type: ADME, cell-free; conditions: read-out: PPB (converted)
[19] = fCmax in mouse at 50 mg/kg, po bid; type: ADME, organism-based; conditions: in vivo
[20] = Dissociation constant, pKa of the compound; type: physicochemical

Chain of Lysine-specific demethylase 5A (P29375 whole entry): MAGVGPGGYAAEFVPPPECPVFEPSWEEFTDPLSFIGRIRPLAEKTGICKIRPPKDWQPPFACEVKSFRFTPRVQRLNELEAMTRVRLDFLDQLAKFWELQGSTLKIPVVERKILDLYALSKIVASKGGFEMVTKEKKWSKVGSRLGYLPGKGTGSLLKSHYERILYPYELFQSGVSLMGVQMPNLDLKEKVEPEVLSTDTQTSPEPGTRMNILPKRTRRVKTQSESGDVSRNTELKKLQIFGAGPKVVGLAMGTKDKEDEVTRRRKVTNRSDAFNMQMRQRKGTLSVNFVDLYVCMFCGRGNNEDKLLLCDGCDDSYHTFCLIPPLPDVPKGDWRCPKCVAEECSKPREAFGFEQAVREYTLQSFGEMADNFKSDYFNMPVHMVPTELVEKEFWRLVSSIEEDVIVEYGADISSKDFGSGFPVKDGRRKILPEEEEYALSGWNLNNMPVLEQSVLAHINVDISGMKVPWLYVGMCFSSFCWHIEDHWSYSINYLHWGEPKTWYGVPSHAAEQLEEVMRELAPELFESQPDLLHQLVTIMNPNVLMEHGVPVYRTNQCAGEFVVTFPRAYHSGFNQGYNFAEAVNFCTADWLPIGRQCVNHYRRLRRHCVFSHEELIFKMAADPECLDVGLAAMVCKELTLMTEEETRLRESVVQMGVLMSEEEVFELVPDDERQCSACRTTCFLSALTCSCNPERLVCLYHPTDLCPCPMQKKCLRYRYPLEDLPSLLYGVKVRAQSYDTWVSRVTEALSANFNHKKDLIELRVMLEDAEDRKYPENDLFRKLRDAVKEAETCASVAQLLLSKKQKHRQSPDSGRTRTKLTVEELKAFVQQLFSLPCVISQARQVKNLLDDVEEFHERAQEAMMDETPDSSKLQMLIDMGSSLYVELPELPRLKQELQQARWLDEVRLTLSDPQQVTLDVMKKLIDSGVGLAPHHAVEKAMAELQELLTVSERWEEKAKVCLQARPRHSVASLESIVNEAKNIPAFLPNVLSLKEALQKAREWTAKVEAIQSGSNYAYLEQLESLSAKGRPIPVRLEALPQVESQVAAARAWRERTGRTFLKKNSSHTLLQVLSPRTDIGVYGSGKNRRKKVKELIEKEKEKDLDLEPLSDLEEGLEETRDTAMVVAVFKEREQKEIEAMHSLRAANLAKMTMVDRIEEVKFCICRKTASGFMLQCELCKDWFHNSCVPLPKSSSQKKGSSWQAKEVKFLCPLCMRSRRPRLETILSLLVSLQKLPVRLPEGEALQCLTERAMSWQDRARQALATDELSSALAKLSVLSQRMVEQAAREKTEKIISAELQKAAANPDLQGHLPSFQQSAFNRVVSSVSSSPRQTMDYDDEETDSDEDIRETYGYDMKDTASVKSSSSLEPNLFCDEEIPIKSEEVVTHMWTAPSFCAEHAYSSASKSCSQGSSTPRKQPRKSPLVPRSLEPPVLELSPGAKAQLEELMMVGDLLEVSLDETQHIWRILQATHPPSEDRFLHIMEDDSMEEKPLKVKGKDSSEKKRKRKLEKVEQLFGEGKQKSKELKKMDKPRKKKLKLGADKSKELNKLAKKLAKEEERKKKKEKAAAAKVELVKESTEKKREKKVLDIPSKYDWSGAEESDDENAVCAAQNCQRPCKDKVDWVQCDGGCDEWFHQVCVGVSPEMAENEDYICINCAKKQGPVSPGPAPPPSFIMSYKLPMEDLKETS
Chain of Histone lysine demethylase PHF8 (Homo sapiens) (Q9UPP1 whole entry): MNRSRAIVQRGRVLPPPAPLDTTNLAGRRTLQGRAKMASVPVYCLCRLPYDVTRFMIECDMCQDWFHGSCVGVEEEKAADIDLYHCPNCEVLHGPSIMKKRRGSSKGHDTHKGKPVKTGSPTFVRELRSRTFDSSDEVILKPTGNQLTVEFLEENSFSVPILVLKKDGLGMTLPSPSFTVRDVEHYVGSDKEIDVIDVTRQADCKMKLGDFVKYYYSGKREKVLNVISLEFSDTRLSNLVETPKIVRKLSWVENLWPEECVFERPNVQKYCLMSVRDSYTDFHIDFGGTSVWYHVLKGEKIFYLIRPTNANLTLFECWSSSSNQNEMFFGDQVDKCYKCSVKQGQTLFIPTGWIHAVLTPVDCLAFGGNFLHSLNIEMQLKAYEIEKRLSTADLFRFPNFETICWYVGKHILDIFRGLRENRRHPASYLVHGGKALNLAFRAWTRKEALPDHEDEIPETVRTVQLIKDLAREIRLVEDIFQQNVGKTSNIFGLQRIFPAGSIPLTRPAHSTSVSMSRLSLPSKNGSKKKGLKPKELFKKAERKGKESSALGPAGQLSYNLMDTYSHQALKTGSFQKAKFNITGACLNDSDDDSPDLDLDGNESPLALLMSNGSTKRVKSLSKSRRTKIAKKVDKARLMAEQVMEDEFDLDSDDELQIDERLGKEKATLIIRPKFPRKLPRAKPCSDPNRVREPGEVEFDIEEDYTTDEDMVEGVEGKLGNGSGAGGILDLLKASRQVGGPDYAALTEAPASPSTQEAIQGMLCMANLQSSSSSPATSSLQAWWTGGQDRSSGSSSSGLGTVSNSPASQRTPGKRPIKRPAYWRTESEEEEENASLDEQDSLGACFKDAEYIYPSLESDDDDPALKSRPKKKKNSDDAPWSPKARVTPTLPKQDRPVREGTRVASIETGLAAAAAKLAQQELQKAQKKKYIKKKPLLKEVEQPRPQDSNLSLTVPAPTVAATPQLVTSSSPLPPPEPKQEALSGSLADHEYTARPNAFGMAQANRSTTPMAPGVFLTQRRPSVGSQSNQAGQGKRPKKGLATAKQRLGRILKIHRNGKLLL
Chain of Lysine-specific demethylase 6A (Homo sapiens) (O15550 whole entry): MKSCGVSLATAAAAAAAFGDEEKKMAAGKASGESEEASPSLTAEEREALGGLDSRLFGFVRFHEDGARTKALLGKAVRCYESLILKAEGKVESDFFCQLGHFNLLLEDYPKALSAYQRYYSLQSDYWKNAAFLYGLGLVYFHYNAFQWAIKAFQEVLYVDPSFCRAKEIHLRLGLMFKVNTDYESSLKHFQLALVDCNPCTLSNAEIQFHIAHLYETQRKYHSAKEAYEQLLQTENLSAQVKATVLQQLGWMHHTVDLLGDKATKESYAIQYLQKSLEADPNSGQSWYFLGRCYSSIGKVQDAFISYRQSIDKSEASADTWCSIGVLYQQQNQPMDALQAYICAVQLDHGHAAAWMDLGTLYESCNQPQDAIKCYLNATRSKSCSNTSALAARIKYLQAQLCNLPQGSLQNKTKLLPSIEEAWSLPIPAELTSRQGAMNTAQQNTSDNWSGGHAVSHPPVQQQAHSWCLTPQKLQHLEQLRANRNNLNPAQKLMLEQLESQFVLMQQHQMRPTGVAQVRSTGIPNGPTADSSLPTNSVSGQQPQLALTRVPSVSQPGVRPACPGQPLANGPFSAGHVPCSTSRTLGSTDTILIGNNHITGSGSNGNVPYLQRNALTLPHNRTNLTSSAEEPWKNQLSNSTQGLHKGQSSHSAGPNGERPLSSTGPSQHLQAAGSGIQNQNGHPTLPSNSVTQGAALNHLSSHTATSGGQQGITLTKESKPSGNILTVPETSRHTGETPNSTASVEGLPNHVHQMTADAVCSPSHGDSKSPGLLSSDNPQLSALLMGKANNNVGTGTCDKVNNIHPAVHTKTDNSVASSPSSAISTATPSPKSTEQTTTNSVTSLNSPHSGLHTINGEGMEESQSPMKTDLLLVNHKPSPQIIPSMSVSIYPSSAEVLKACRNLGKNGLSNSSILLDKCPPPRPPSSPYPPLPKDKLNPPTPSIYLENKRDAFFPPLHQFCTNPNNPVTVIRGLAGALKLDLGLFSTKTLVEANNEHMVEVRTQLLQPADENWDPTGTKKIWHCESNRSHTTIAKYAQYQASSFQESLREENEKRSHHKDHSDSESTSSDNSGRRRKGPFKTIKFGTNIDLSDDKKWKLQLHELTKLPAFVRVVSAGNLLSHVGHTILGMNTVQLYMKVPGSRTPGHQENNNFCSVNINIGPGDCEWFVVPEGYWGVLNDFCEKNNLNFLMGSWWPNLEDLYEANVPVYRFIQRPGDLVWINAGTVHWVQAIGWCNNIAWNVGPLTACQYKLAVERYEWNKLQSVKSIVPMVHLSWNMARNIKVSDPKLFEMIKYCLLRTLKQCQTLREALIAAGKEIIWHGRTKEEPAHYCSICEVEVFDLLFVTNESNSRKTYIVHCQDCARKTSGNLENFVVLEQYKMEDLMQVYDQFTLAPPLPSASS

COCCn1cc(-c2[nH]c3c(C#N)cnn3c(=O)c2C(C)C)cn1
logD [1]: 0.4
IC50 [2]: 10.4 nM
EC50 [3]: 1800 nM
fraction unbound [4]: 0.033

CC(C)c1c(-c2cccc(OC(F)(F)F)c2)[nH]c2c(C#N)cnn2c1=O
IC50 [2]: 28.9 nM

CC(C)c1c(N(C)C)[nH]c2c(C#N)cnn2c1=O
IC50 [2]: 76.6 nM

C#CCc1c(-c2ccccc2)[nH]c2c(C#N)cnn2c1=O
IC50 [2]: 21.1 nM

CC(C)c1c(-c2cnn(C3CC3)c2)[nH]c2c(C#N)cnn2c1=O
logD [1]: 0.74
IC50 [2]: 7.9 nM
EC50 [3]: 1300 nM
fraction unbound [4]: 0.008

C=CC(C)c1c(-c2ccccc2)[nH]c2c(C#N)cnn2c1=O (racemic)
IC50 [2]: 15.5 nM
EC50 [3]: 16400 nM

CC(C)c1c(-c2cccc(C(F)(F)F)c2)[nH]c2c(C#N)cnn2c1=O
EC50 [3]: 7500 nM

CC(C)c1c(-c2ccccc2)[nH]c2c(C#N)cnn2c1=O
pKa [5]: 6

C=Cc1c(-c2ccccc2)[nH]c2c(C#N)cnn2c1=O
IC50 [2]: 20.1 nM

CC(C)c1c(Cc2ccccc2)[nH]c2c(C#N)cnn2c1=O
IC50 [2]: 11.9 nM
EC50 [3]: > 30000 nM

CC(C)c1c(/C=C/c2ccccc2)[nH]c2c(C#N)cnn2c1=O
IC50 [2]: 17.5 nM

CC(C)c1c[nH]c2c(C#N)cnn2c1=O
IC50 [2]: 28.3 nM

CC(C)c1c(-c2ccco2)[nH]c2c(C#N)cnn2c1=O
IC50 [2]: 6.2 nM
EC50 [3]: 6700 nM

CCn1cc(-c2[nH]c3c(C#N)cnn3c(=O)c2C(C)C)cn1
logD [1]: 0.66
EC50 [3]: 2300 nM
fraction unbound [4]: 0.005

N#Cc1cnn2c(=O)c(C3CCC3)c(-c3ccccc3)[nH]c12
IC50 [2]: 9.2 nM
EC50 [3]: > 30000 nM

C=C(C)c1c(-c2ccccc2)[nH]c2c(C#N)cnn2c1=O
IC50 [2]: 24.7 nM

C#CC(C)c1c(-c2ccccc2)[nH]c2c(C#N)cnn2c1=O (racemic)
IC50 [2]: 12.8 nM
EC50 [3]: 11300 nM

CC(C)c1c(-c2cncnc2)[nH]c2c(C#N)cnn2c1=O
EC50 [3]: > 30000 nM

CC(C)c1c(-c2cnn(C3COC3)c2)[nH]c2c(C#N)cnn2c1=O
logD [1]: -0.1
IC50 [2]: 15.9 nM
EC50 [3]: 8300 nM
fraction unbound [4]: 0.04

CC(CO)c1c(-c2ccccc2)[nH]c2c(C#N)cnn2c1=O (configuration not stated)
IC50 [2]: 29 nM

CC(C)c1c(-c2cccnc2)[nH]c2c(C#N)cnn2c1=O
IC50 [2]: 12.3 nM
EC50 [3]: 9300 nM

CCc1[nH]c2c(C#N)cnn2c(=O)c1C(C)C
IC50 [2]: 9.5 nM
EC50 [3]: 12100 nM

CC(C)c1c(-c2cnn(CCC#N)c2)[nH]c2c(C#N)cnn2c1=O
logD [1]: -0.45
IC50 [2]: 10.1 nM
EC50 [3]: 2900 nM
fraction unbound [4]: 0.066

CC(C)c1c(-c2ccc(Cl)cc2)[nH]c2c(C#N)cnn2c1=O
IC50 [2]: 20.4 nM

Cc1[nH]c2c(C#N)cnn2c(=O)c1C(C)C
IC50 [2]: 9.3 nM
EC50 [3]: 13800 nM

CC(C)c1c(-c2cn[nH]c2)[nH]c2c(C#N)cnn2c1=O
IC50 [2]: 5.3 nM
EC50 [3]: 1200 nM
fraction unbound [4]: 0.026

CC(C)c1c(-c2ccc(C(F)(F)F)cc2)[nH]c2c(C#N)cnn2c1=O
IC50 [2]: 18.2 nM

COc1cc(-c2[nH]c3c(C#N)cnn3c(=O)c2C(C)C)ccn1
IC50 [2]: 31.6 nM

CC(C)c1c(-c2cnn(-c3ccccc3)c2)[nH]c2c(C#N)cnn2c1=O
logD [1]: 1.8
IC50 [2]: 5.6 nM
EC50 [3]: 1700 nM
fraction unbound [4]: 0.001
clearance [6]: 7.7 mL/min/kg
half-life [7]: 66 min
Vd [8]: 0.63 L/kg
bioavailability [9]: 21.3%

CC(C)c1c(-c2cnn(C(C)(C)C)c2)[nH]c2c(C#N)cnn2c1=O
logD [1]: 1.4
IC50 [2]: 15.1 nM
EC50 [3]: 340 nM
fraction unbound [4]: 0.012
clearance [6]: 5 mL/min/kg
half-life [7]: 78 min
Vd [8]: 0.44 L/kg
bioavailability [9]: 100%
IC50 [10]: 4.7 nM
IC50 [11]: 65.5 nM
inhibition [12]: inactive
inhibition [13]: inactive
inhibition [14]: inactive
inhibition [15]: inactive
inhibition [16]: inactive
Cmax [17]: 206 µM
fraction unbound [18]: 0.025
fCmax [19]: 5.2 µM

COC(=O)c1c(-c2ccccc2)[nH]c2c(C#N)cnn2c1=O
IC50 [2]: 319 nM

CC(C)c1c(-c2ccc(OC(F)(F)F)cc2)[nH]c2c(C#N)cnn2c1=O
IC50 [2]: 35.9 nM

CC(C)c1c(Oc2ccccc2)[nH]c2c(C#N)cnn2c1=O
IC50 [2]: 18 nM
EC50 [3]: > 30000 nM
pKa [20]: 9.8

CC(C)c1c(-c2cnn(C(C)C)c2)[nH]c2c(C#N)cnn2c1=O
logD [1]: 0.93
IC50 [2]: 13.8 nM
EC50 [3]: 440 nM
fraction unbound [4]: 0.013
clearance [6]: 15.7 mL/min/kg
half-life [7]: 36.6 min
Vd [8]: 0.54 L/kg
bioavailability [9]: 69.5%

CCC(C)c1c(-c2ccccc2)[nH]c2c(C#N)cnn2c1=O (racemic)
EC50 [3]: 28400 nM

Cc1ccc(-c2[nH]c3c(C#N)cnn3c(=O)c2C(C)C)cc1
IC50 [2]: 20.3 nM

N#Cc1cnn2c(=O)c(Br)c(-c3ccccc3)[nH]c12
IC50 [2]: 29.3 nM

CC(C)c1c(N2CCCCC2)[nH]c2c(C#N)cnn2c1=O
IC50 [2]: 63.2 nM

CC(C)c1c(Nc2ccccc2)[nH]c2c(C#N)cnn2c1=O
IC50 [2]: 27.5 nM
EC50 [3]: > 30000 nM
pKa [20]: 8.2

CC(C)c1c(-c2cnn(C3CCC3)c2)[nH]c2c(C#N)cnn2c1=O
logD [1]: 1.3
IC50 [2]: 11.2 nM
EC50 [3]: 870 nM
fraction unbound [4]: 0.004

CC(C)c1c(-c2cnn(C)c2)[nH]c2c(C#N)cnn2c1=O
logD [1]: 0.4
IC50 [2]: 13.3 nM
EC50 [3]: 2000 nM
fraction unbound [4]: 0.011
clearance [6]: 59.9 mL/min/kg
half-life [7]: 10.2 min
Vd [8]: 0.6 L/kg
bioavailability [9]: 61.3%

CC(C)c1c(CCc2ccccc2)[nH]c2c(C#N)cnn2c1=O
IC50 [2]: 13.1 nM
EC50 [3]: > 30000 nM
